The source of these data is patent US20240336591A1, “ORGANIC PYRIDINE-PYRAZOLE COMPOUNDS AND THEIR USES” (priority 2021, published 2024).

Data set [1] deals with T1, Human PDE10A2 (Homo sapiens (Human), UniProt Q9Y233). Briefly: Biochemical human PDE10A activity assay - PDE10A2 Phosphate Sensor Assay. The following applies: cGMP 3 μM substrate, PDE10A2 0.25 nM. On the procedure:
Biochemical Human PDE10A Activity Assay—PDE10A2 Phosphate Sensor Assay
Semi Log compound dilutions starting at a final concentration of 50 μM were dispensed into a black 384 well plate alongside, DMSO and an Inhibited control using the Echo Acoustic dispenser. […] Data was analysed using a 4-parameter fit.

The target of data set [2] is T1, Human PDE10A2. The data set is described as follows: Cell based human PDE10A activity assay - cAMP HTRF assay in HEK 293 rhPDE10A2 cell line. On the procedure: Semi log compound dilutions starting at a final concentration of 10 μM were dispensed into a white 384 well plate, alongside DMSO and an Inhibited control using the Tecan D300e digital dispenser. HEK 293 cells overexpressing recombinant human PDE10A2 were seeded on top of the compounds at 2500 cells/well in a volume 5 μL/well. The plate was incubated at room temperature for 60 minutes. To induce endogenous cAMP, 5 μL/well of Forskolin at a final assay concentration of 10 μM was added to the plate. The plate was incubated at room temperature for a further 45 minutes. cAMP HTRF detection reagents were added, and the plate was incubated for 60 minutes at room temperature. […] Data was analysed using a 4-parameter fit.
For orientation: In TR-FRET formats the signal depends on donor and acceptor labels being close together.

Data set [3] is described as follows: Determination of CNS penetration in vivo (brain to plasma partitioning, Kpuu). The following applies: male, Sprague-Dawley, brain / plasma (unbound); rat, IV, 1 mg/kg, 10-30 min post dose. Also on record: species or system Male Sprague Dawley Rats.
The subject of data set [4] is inflamed colonic mucosa from ulcerative colitis patients. The data set is described as follows: Ex-vivo colon biopsy culture from ulcerative colitis patients, cytokine release (Protocol 1). In kind it is cell-based, human. The conditions noted are these: 100 nM; UC donor 3; vs vehicle control. As for the experimental part: The effect of selective PDE10A inhibition was tested on inflamed colonic mucosa from ulcerative colitis patients taken during routine endoscopy (Protocol 1 detailed below). These samples retain a disease phenotype in ex-vivo culture, secrete high basal levels of inflammatory cytokines, and represent a highly relevant and translational disease model. The effect of the PDE10A inhibitors on levels of the inflammatory cytokines IL-6 and IL-8 released from these tissue samples were measured. Both IL-6 and IL-8 are key regulators in ulcerative colitis pathology and their levels correlate with disease severity (Waldner M J et al. Master regulator of intestinal disease: IL-6 in chronic inflammation and cancer development. Semin Immunol. 26(1), 75-9 (2014); Bernardo D et al. IL-6 promotes immune responses in human ulcerative colitis and induces a skin-homing phenotype in the dendritic cells and T-cells they stimulate. Eur J Immunol. 42(5), 1337-53 (2012); Pearl D S, Cytokine mucosal expression in ulcerative colitis, the relationship between cytokine release and disease activity. J Crohns Colitis. 7(6), 481-9 (2013)).
These colon biopsies retain an inflammatory phenotype and secrete high levels of inflammatory cytokines in ex-vivo culture.
Biopsy tissue was obtained from inflamed colonic mucosa from ulcerative colitis or Crohn's disease patients during routine endoscopy. Ex-vivo biopsy cultures for the analysis of inflammatory cytokine biomarkers were run as previously described (Vossenkämper A. et al. A CD3- specific antibody reduces cytokine production and alters phosphoprotein profiles in intestinal tissues from patients with inflammatory bowel disease. Gastroenterology, 147, 172-183 (2014)). Biopsies were incubated in organ culture for 24 h with the addition of positive control compounds, or specific PDE10A inhibitors. Supernatants collected at the end of the experiment were snap-frozen and stored at −70° C. For the measurement of cytokines, the frozen culture supernatants were thawed and analysed for levels of the inflammatory cytokines using Luminex cytokine assay kits (R&D Systems) and an R&D Systems MAGPIX® analyser. Mean values ±SDs were calculated for the levels of spontaneous cytokine production measured in biopsy culture supernatants from each treatment group.

Setting [5] is: Forskolin 10 μM, read-out: cAMP HTRF Assay in HEK 293 rhPDE10A2 cell line (pIC50) (converted).

Where two headings read alike, the source gives them in different places.

T1 sequence (Q9Y233 267-1055): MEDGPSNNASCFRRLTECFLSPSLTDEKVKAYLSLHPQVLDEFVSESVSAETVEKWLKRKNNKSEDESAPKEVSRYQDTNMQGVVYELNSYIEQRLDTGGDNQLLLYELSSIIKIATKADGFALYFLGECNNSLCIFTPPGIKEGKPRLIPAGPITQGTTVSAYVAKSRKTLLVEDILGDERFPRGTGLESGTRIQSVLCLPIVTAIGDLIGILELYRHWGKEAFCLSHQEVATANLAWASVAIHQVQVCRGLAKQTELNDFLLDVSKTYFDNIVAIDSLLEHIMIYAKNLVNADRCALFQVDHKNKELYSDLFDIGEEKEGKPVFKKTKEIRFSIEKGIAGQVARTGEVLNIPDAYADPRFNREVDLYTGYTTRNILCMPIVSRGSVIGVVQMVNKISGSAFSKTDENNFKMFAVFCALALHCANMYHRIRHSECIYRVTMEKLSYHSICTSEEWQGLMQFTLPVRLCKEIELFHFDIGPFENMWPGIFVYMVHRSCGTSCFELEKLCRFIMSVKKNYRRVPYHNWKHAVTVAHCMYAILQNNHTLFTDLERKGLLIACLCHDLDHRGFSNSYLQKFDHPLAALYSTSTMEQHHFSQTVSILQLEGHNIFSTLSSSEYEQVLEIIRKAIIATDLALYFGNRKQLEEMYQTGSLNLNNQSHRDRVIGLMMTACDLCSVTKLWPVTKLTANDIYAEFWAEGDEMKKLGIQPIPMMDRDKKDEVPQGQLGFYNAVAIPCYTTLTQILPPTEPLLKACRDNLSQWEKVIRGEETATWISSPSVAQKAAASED

With `O=C(O)Cn1cc(-c2ccncc2)c(-c2ccc(OCc3ccc4ccccc4n3)cc2)n1` [Example 5, 2-[4-(4-Pyridyl)-3-[4-(2-quinolylmethoxy)phenyl]pyrazol-1-yl]acetic acid], at Human PDE10A2 [1], the “PDE10A2 Phosphate Sensor Enzyme Assay (pIC50)” value came to 9.41. For the same compound, the IC50 against Human PDE10A2 [2] is 75.9 nM. The compound further yielded a Kp uu in data set [3] of 0.02.

`Cn1cc(-c2ccncc2)c(-c2ccc(OCc3nc4ccccn4c3C(=O)N=S(C)(C)=O)cc2)n1` [Example 20, N-[Dimethyl(oxo)-λ6-sulfanylidene]-2-[[4-[1-methyl-4-(4-pyridyl)pyrazol-3-yl]phenoxy]methyl]imidazo[1,2-a]pyridine-3-carboxamide]: in data set [4], the “secreted levels of IL-6” value is “significantly reduce” and the “secreted levels of IL-8” value is given as “significantly reduce”. In addition, on Human PDE10A2 [1], the “PDE10A2 Phosphate Sensor Enzyme Assay (pIC50)” value was 9.76. At Human PDE10A2 [2], this compound showed an IC50 of 6.76 nM. Moreover, the Kp uu in data set [3] stood at 0.11.

Take `Cn1cc(-c2ccncc2)c(-c2ccc(OCc3nc4ccccc4nc3C(=O)N=S(C)(C)=O)cc2)n1` [Example 18, N-[Dimethyl(oxo)-λ6-sulfanylidene]-3-[[4-[1-methyl-4-(4-pyridyl)pyrazol-3-yl]phenoxy]methyl]quinoxaline-2-carboxamide]: the “PDE10A2 Phosphate Sensor Enzyme Assay (pIC50)” value at Human PDE10A2 [1] is given as 9.34. Besides, at Human PDE10A2 [2], the IC50 was 102 nM. In data set [3], this compound displayed a Kp uu of 0.03.

With `CN(C(=O)c1cc2ccccc2nc1COc1ccc(-c2nn(C)cc2-c2ccncc2)cc1)S(C)(=O)=O` [Example 15, N-Methyl-2-[[4-[1-methyl-4-(4-pyridyl)pyrazol-3-yl]phenoxy]methyl]-N-methylsulfonyl-quinoline-3-carboxamide], on Human PDE10A2 [1], the “PDE10A2 Phosphate Sensor Enzyme Assay (pIC50)” value was determined as 9.22. Besides, the IC50 against Human PDE10A2 [2] was 10.7 nM. The Kp uu in data set [3] came to 0.06.

Consider `Cn1cc(-c2ccncc2)c(-c2ccc(OCc3cc(C(=O)O)c4ccccc4n3)cc2)n1` [Example 4, Ammonium 2-[[4-[1-methyl-4-(4-pyridyl)pyrazol-3-yl]phenoxy]methyl]quinoline-4-carboxylate], for which, in data set [4], the “secreted levels of IL-6” value is “significantly reduce” and the “secreted levels of IL-8” value was “significantly reduce”. Moreover, the “PDE10A2 Phosphate Sensor Enzyme Assay (pIC50)” value at Human PDE10A2 [1] was determined as 10.1. For the same compound, the IC50 at Human PDE10A2 [2] is 0.813 nM. The compound further displayed a Kp uu in data set [3] of 0.32.

Consider `Cn1cc(-c2ccncc2)c(-c2ccc(OCc3nc4ccccc4cc3C(=O)NS(C)(=O)=O)cc2)n1` [Example 9, 2-[[4-[1-Methyl-4-(4-pyridyl)pyrazol-3-yl]phenoxy]methyl]-N-methylsulfonyl-quinoline-3-carboxamide], for which, in data set [4], the “secreted levels of IL-6” value is given as “significantly reduce” and the “secreted levels of IL-8” value is recorded as “significantly reduce”. The “PDE10A2 Phosphate Sensor Enzyme Assay (pIC50)” value on Human PDE10A2 [1] came to 10.1. Moreover, the IC50 on Human PDE10A2 [2] was 1.66 nM. For the same compound, the Kp uu in data set [3] came to 0.37.

Regarding `Cn1cc(-c2ccncc2)c(-c2ccc(OCc3nc4ccccc4cc3C(=O)N=S(C)(C)=O)cc2)n1` [Example 10, N-[Dimethyl(oxo)-λ6-sulfanylidene]-2-[[4-[1-methyl-4-(4-pyridyl)pyrazol-3-yl]phenoxy]methyl]quinoline-3-carboxamide], in data set [4], the “secreted levels of IL-6” value is “significantly reduce” and the “secreted levels of IL-8” value was “significantly reduce”. Moreover, the “PDE10A2 Phosphate Sensor Enzyme Assay (pIC50)” value at Human PDE10A2 [1] is recorded as 10. The IC50 on Human PDE10A2 [2] was 1.1 nM. In addition, in data set [3], the Kp uu was determined as 0.02.

On to `Cn1cc(-c2ccncc2)c(-c2ccc(OCc3cc(C(=O)N=S(C)(C)=O)c4ccccc4n3)cc2)n1` [Example 11, N-[Dimethyl(oxo)-λ6-sulfanylidene]-2-[[4-[1-methyl-4-(4-pyridyl)pyrazol-3-yl]phenoxy]methyl]quinoline-4-carboxamide], for which, in data set [4], the “secreted levels of IL-6” value is “significantly reduce” and the “secreted levels of IL-8” value was “significantly reduce”. Further, at Human PDE10A2 [1], the “PDE10A2 Phosphate Sensor Enzyme Assay (pIC50)” value was 10.1. In addition, the IC50 against Human PDE10A2 [2] was 1 nM. The Kp uu in data set [3] was 0.02.

For `Cn1cc(-c2ccncc2)c(-c2ccc(OCc3nc(C(=O)N=S(C)(C)=O)c4ccccc4n3)cc2)n1` [Example 17, N-[Dimethyl(oxo)-λ6-sulfanylidene]-2-[[4-[1-methyl-4-(4-pyridyl)pyrazol-3-yl]phenoxy]methyl]quinazoline-4-carboxamide], in data set [4], the “secreted levels of IL-6” value was “significantly reduce” and the “secreted levels of IL-8” value was “significantly reduce”. For the same compound, the “PDE10A2 Phosphate Sensor Enzyme Assay (pIC50)” value on Human PDE10A2 [1] was found to be 9.92. This compound also showed an IC50 against Human PDE10A2 [2] of 3.02 nM. The Kp uu in data set [3] came out at 0.06.

As to `Cn1cc(-c2ccncc2)c(-c2ccc(OCc3nc4ccccc4cc3C(=O)O)cc2)n1` [Example 3, 2-[[4-[1-Methyl-4-(4-pyridyl)pyrazol-3-yl]phenoxy]methyl]quinoline-3-carboxylic acid], the “PDE10A2 Phosphate Sensor Enzyme Assay (pIC50)” value on Human PDE10A2 [1] amounted to 10.1. For the same compound, the IC50 against Human PDE10A2 [2] was 2.75 nM. In addition, the Kp uu in data set [3] was found to be 0.56.

In the case of `Cn1cc(-c2ccncc2)c(-c2ccc(OCc3nc4cccnc4cc3C(=O)N=S(C)(C)=O)cc2)n1` [Example 19, N-[Dimethyl(oxo)-λ6-sulfanylidene]-2-[[4-[1-methyl-4-(4-pyridyl)pyrazol-3-yl]phenoxy]methyl]-1,5-naphthyridine-3-carboxamide], in data set [4], the “secreted levels of IL-6” value is reported as “significantly reduce” and the “secreted levels of IL-8” value is listed as “significantly reduce”. The “PDE10A2 Phosphate Sensor Enzyme Assay (pIC50)” value on Human PDE10A2 [1] stood at 9.43. The compound further showed an IC50 against Human PDE10A2 [2] of 5.37 nM. The Kp uu in data set [3] is 0.05.

In the case of `Cn1cc(-c2ccncc2)c(-c2ccc(OCc3nc4ccccc4cc3C(=O)N=S(C)(=O)C3CC3)cc2)n1` (centres unmarked) [Example 14, N-(Cyclopropyl-methyl-oxo-λ6-sulfanylidene)-2-[[4-[1-methyl-4-(4-pyridyl)pyrazol-3-yl]phenoxy]methyl]quinoline-3-carboxamide], on Human PDE10A2 [1], the “PDE10A2 Phosphate Sensor Enzyme Assay (pIC50)” value is on record as 10.0. Further, the IC50 on Human PDE10A2 [2] (setting [5]) is 0.676 nM.

With `Cn1ncc(-c2ccncc2)c1-c1ccc(OCc2nc3ccccc3cc2C(=O)O)cc1` [Example 2, 2-[[4-[2-Methyl-4-(4-pyridyl)pyrazol-3-yl]phenoxy]methyl]quinoline-3-carboxylic acid], the “PDE10A2 Phosphate Sensor Enzyme Assay (pIC50)” value at Human PDE10A2 [1] is 9.69. In addition, on Human PDE10A2 [2] (setting [5]), the IC50 is 0.117 nM.

As to `Cn1cc(-c2ccncc2)c(-c2ccc(OCc3nc4ccccc4nc3N3CC(N)C3)cc2)n1` [Example 41, 1-[3-[[4-[1-Methyl-4-(4-pyridyl)pyrazol-3-yl]phenoxy]methyl]quinoxalin-2-yl]azetidin-3-amine], the “PDE10A2 Phosphate Sensor Enzyme Assay (pIC50)” value on Human PDE10A2 [1] came out at 9.45. Besides, on Human PDE10A2 [2], the IC50 is 7.59 nM.

Take `Cc1cccc2nc(COc3ccc(-c4nn(C)cc4-c4ccncc4)cc3)c(C(=O)N=S(C)(C)=O)cc12` [Example 7, N-[Dimethyl(oxo)-λ6-sulfanylidene]-5-methyl-2-[[4-[1-methyl-4-(4-pyridyl)pyrazol-3-yl]phenoxy]methyl]quinoline-3-carboxamide]: the “PDE10A2 Phosphate Sensor Enzyme Assay (pIC50)” value on Human PDE10A2 [1] was 9.65. For the same compound, on Human PDE10A2 [2] (setting [5]), the IC50 is 1.48 nM.

Regarding `O=C(O)c1cc(COc2ccc(-c3n[nH]cc3-c3ccncc3)cc2)nc2ccccc12` [Example 30, 2-[[4-[4-(4-Pyridyl)-1H-pyrazol-3-yl]phenoxy]methyl]quinoline-4-carboxylic acid], the “PDE10A2 Phosphate Sensor Enzyme Assay (pIC50)” value on Human PDE10A2 [1] was 10.2. The IC50 at Human PDE10A2 [2] (setting [5]) was 0.138 nM.

For `CN(C(=O)c1cc(COc2ccc(-c3nn(C)cc3-c3ccncc3)cc2)nc2ccccc12)S(C)(=O)=O` [Example 16, N-Methyl-2-[[4-[1-methyl-4-(4-pyridyl)pyrazol-3-yl]phenoxy]methyl]-N-methylsulfonyl-quinoline-4-carboxamide], on Human PDE10A2 [1], the “PDE10A2 Phosphate Sensor Enzyme Assay (pIC50)” value came out at 9.87. At Human PDE10A2 [2] (setting [5]), the IC50 is 0.603 nM.
